# From patent US11033544B2, “Low-dose triple combination formulation” (THE GEORGE INSTITUTE FOR GLOBAL HEALTH, priority 2019, dated 2021)
# “Also recorded” adds a separate entry of the source.
# Key:
# Type in all cases: in vivo
# [1] = system: Zucker Diabetic Fatty (ZDF) rats; test: Whole blood glucose in the Zucker rat model of diet induced diabetes, 21 days of treatment
# Description: (§1) Study Design: • Zucker rat model of diet induced diabetes (Zucker Diabetic Fatty Rats) • Parallel randomized study • 10 animals in each of 4 treatment groups • 21 days of treatment
# (§2) Main Study Outcomes: • Glucose (measured at multiple time points before and during treatment) • HbA1c (before and at the end of the treatment period) • Insulin (before and at the end of the treatment period) • Creatinine (before and at the end of the treatment period)
# (§3) Ten Zucker Diabetic Fatty (ZDF) rats were randomly allocated to each of the four different treatment groups (Table 6). Whole blood glucose measurements were made from 4 days before dosing, then daily until for 8 days, then at reduced frequency. Measurements of HbA1c and creatinine were made the day prior to dosing, then at days 9 and 21. Insulin measurements were made the day prior to dosing then on day 20. A clinical chemistry sample from one animal in the vehicle group on day 9 was not available so there is a missing measurement for creatinine and HbA1c on that day
# (§4) Whole blood glucose, HbA1c and Creatinine were each analyzed using a linear mixed mode (proc mixed in SAS/STAT 14.2). For WBC, unstructured, autoregressive, exchangeable and Toeplitz correlation structures for repeated measurements across the study were compared using Akaike Information Criterion and Bayesian Information Criterion. The Toeplitz correlation structure was selected as the best fitting structure. For HbA1c and Creatinine an exchangeable structure was used as there were only two measurements. Denominator degrees of freedom were calculated using the between-within subject method. The model included coefficients for baseline measurement (the closest measurement preceding dosing), type of drug treatment, time and an interaction between drug treatment and time. Marginal means (with 95% confidence intervals) for the measurement at each period for each drug were estimated, and an overall marginal mean (with 95% confidence interval) for measurements across time was estimated using weights that reflect the differing amounts of time in each measurement period (assuming each measurement represented all time since the preceding measurement). A likelihood ratio test of overall differences between treatment was initially used, if significant (p<0.05) then we tested for differences between each combination of treatments.
# (§5) To test for robustness of the linear mixed model and ANCOVA models a bootstrapped 95% CI (percentile method) for the weighted marginal mean of measurements across the entire study period or single outcome measurement using 2000 replicates was estimated. The bootstrap sampling was done on individual animal (using complete measurements), with stratification by treatment type.
# [2] = system: Zucker Diabetic Fatty (ZDF) rats; test: HbA1c in the Zucker rat model of diet induced diabetes, 21 days of treatment
# Description: as §1, §2, §3, §4, §5
# [3] = system: Zucker Diabetic Fatty (ZDF) rats; test: Plasma insulin in the Zucker rat model of diet induced diabetes, 21 days of treatment
# Description: as §1, §2, §3
# For Insulin, a baseline measure and a measurement at day 20 was available, so the ANCOVA approach (linear regression with the baseline value as a covariate) was used to test for differences in this measurement between treatments. The interaction between baseline value and treatment was tested but there was no evidence of an interaction, therefore the main effects were retained.
# as §5
# [4] = system: Zucker Diabetic Fatty (ZDF) rats; test: Serum creatinine in the Zucker rat model of diet induced diabetes, 21 days of treatment
# Description: as §1, §2, §3, §4, §5
# [5] = whole study period, bootstrapped 95% CI, 2000 replicates
smiles,measurement,setting,value
"CN(C)C(=N)N=C(N)N [Composition 1K-MET, Metformin]",WBG relative to the control group,[1]; 21 days of treatment,essentially no difference
same,"Whole blood glucose, pairwise comparison Vehicle vs treatment, Estimate (95% CI)","[1]; days 1-21, difference = treatment minus vehicle",24.4 (−5.2-53.9) mg/dL
same,"Overall level in WBG after dosing, Estimate (95% CI)","[1]; non-fasting whole blood glucose, time-weighted marginal mean over days 1-21 post-dosing, linear mixed model",442.7 (421.8-463.5) mg/dL
same,"Whole blood glucose, bootstrap median and confidence interval",[1]; [5],443.4 (419.8-465.0) mg/dL
same,HbA1c relative to the control group,[2]; 21 days of treatment,essentially no difference
same,"HbA1c, pairwise comparison Vehicle vs treatment, Estimate (95% CI)","[2]; days 9 and 21, difference = treatment minus vehicle",−0.35 (−0.68-−0.01) %
same,"HbA1c, overall level after dosing, estimate (95% CI)","[2]; measurements at days 9 and 21, marginal mean, linear mixed model",6.52 (6.29-6.75) %
same,"HbA1c, bootstrap median and confidence interval",[2]; [5],6.53 (6.24-6.82) %
same,Insulin levels relative to the control group / vehicle,[3]; day 20,no evidence of a difference; also recorded: essentially no difference
same,"Insulin, Overall level in WBG after dosing, Estimate (95% CI)","[3]; day 20, ANCOVA with baseline as covariate",3879 (2757-5001) pg/mL
same,"Insulin, bootstrap median and confidence interval","[3]; day 20, bootstrapped 95% CI, 2000 replicates",3867 (2914-4874) pg/m
same,"Insulin, pairwise comparison Vehicle vs treatment, Estimate (95% CI)","[3]; day 20, difference = treatment minus vehicle",932 (−660-2524) pg/mL
same,Creatinine relative to the control group,[4]; 21 days of treatment,essentially no difference
same,"Creatinine, pairwise comparison Vehicle vs treatment, Estimate (95% CI)","[4]; serum, days 9 and 21, difference = treatment minus vehicle",0.01 (−0.01-0.03) mg/dL
same,"Creatinine, Overall level in WBG after dosing, Estimate (95% CI)","[4]; serum, days 9 and 21, marginal mean, linear mixed model",0.79 (0.77-0.80) mg/dL
same,"Creatinine, bootstrap median and confidence interval",[4]; [5],0.79 (0.77-0.80) mg/dL
